Data on 8 molecules can be found in PubChem BioAssay (NCI).

Among the test systems are UACC-257 melanoma; OVCAR-4 ovarian; RXF 393 renal; A498 renal; T-47D breast; KM12 colon; MALME-3M melanoma; NCI-H522 lung; SK-MEL-2 melanoma; TK-10 renal.
Common to all, as to test: NCI tumour cell line growth inhibition, 48 h

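Cells were grown in 96-well plates and exposed to each compound for 48 hours at five concentrations; endpoints were interpolated linearly between bracketing concentrations, or set to the highest concentration if not reached. GI50: concentration for 50% inhibition of growth. TGI is the concentration that stops growth completely.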 A value given as a limit tells only on which side of the number the result lay.

For the molecule `COC(=O)C(CCC(=O)CCl)N1C(=O)c2ccccc2C1=O` (centres undefined), the TGI in the assay with UACC-257 melanoma came out at 22.2 µM; in the assay on OVCAR-4 ovarian, 27.4 µM; in the assay on RXF 393 renal, 6.45 µM; in the assay on A498 renal, 36.6 µM; in the assay with T-47D breast, 26.8 µM; in the assay with KM12 colon, 36.9 µM. Besides, the TGI with MALME-3M melanoma worked out at 11.9 µM; with NCI-H522 lung, 4.06 µM; in the assay with SK-MEL-2 melanoma it was 21.9 µM; in the assay on TK-10 renal, 21.5 µM.

For the molecule `O=c1c2cc(-c3ccccc3)sc2ncn1Cc1ccc(Cl)c(Cl)c1`, the GI50 was 62.2 µM in the assay with UACC-257 melanoma; 12.5 µM with OVCAR-4 ovarian; 17.1 µM in the assay on RXF 393 renal; 19.4 µM with A498 renal; 31.8 µM with T-47D breast; 0.32 µM in the assay on KM12 colon. Further, the GI50 in the assay on NCI-H522 lung was 6.43 µM; in the assay on SK-MEL-2 melanoma it was 12.2 µM. The TGI in the assay with UACC-257 melanoma was over 100 µM; in the assay on OVCAR-4 ovarian, 38 µM; with RXF 393 renal, 48.2 µM; in the assay with A498 renal it was 50.3 µM; with T-47D breast it was over 100 µM; in the assay with KM12 colon, 6.38 µM. Also, the values for the TGI with NCI-H522 lung and in the assay on SK-MEL-2 melanoma were 53.1 µM and 57.3 µM, respectively.

Turning to `CCCCCCCCOC(=O)c1c(C)[nH]c(/C=C2\N=C(c3ccc[nH]3)C=C2OC)c1C`, the GI50 is 0.188 µM in the assay on UACC-257 melanoma; 0.034 µM with OVCAR-4 ovarian; 0.0535 µM in the assay with RXF 393 renal; 0.19 µM in the assay on A498 renal; 0.0556 µM with T-47D breast; 0.0355 µM in the assay on KM12 colon. Moreover, the GI50 with MALME-3M melanoma is 0.641 µM; in the assay with NCI-H522 lung, 0.0316 µM; with SK-MEL-2 melanoma, 0.0279 µM; in the assay on TK-10 renal, 0.0484 µM. The TGI in the assay with UACC-257 melanoma amounted to 7.45 µM; with OVCAR-4 ovarian, 16.8 µM; in the assay with RXF 393 renal, 1.73 µM; with A498 renal it was 2 µM; in the assay with T-47D breast, 10.4 µM; in the assay on KM12 colon it was 1.97 µM. Besides, the TGI stood at 2.67 µM with MALME-3M melanoma, 4.02 µM in the assay with NCI-H522 lung, 0.0952 µM in the assay on SK-MEL-2 melanoma and 7.29 µM with TK-10 renal.

On to `COc1cc2ncnc(-n3ncc4cc(NC(=O)Nc5ccc(Cl)c(Cl)c5)ccc43)c2cc1OC`, for which the GI50 was 3.23 µM with UACC-257 melanoma; 1.92 µM in the assay on OVCAR-4 ovarian; 1.53 µM in the assay on RXF 393 renal; 2.37 µM in the assay with A498 renal; 2.39 µM in the assay with T-47D breast; 0.0514 µM with KM12 colon. In addition, the GI50 was 1.72 µM with MALME-3M melanoma, 2.5 µM in the assay on NCI-H522 lung, 2.31 µM with SK-MEL-2 melanoma and 2.38 µM with TK-10 renal. Also, the TGI amounted to 6.79 µM with UACC-257 melanoma; 3.89 µM in the assay with OVCAR-4 ovarian; 3.29 µM in the assay on RXF 393 renal; 6.24 µM in the assay with A498 renal; 7.17 µM with T-47D breast; 9.66 µM with KM12 colon. Also, the TGI with MALME-3M melanoma is 3.89 µM; in the assay on NCI-H522 lung, 6 µM; with SK-MEL-2 melanoma, 5.01 µM; in the assay on TK-10 renal it was 6.45 µM.

For `c1cc(-c2nnc(SSc3ncnc4nc[nH]c34)o2)ccn1`, the GI50 with UACC-257 melanoma was 9.34 µM; with OVCAR-4 ovarian, 0.519 µM; with RXF 393 renal, 6.59 µM; in the assay on A498 renal, 4.61 µM; in the assay with T-47D breast, 0.467 µM; with KM12 colon, 2.61 µM. Besides, the GI50 with MALME-3M melanoma was 2.08 µM; in the assay on NCI-H522 lung, 1.63 µM; with TK-10 renal it was 0.487 µM. Further, the TGI in the assay on UACC-257 melanoma, with OVCAR-4 ovarian, in the assay on RXF 393 renal, with A498 renal, in the assay with T-47D breast and with KM12 colon was over 100 µM throughout. Moreover, the TGI in the assay on MALME-3M melanoma, with NCI-H522 lung and in the assay on TK-10 renal was over 100 µM each time.

With `CCn1c(-c2cc3c([nH]c4ccccc43)c(-c3cccc(O)c3)n2)n[nH]c1=S`, the GI50 in the assay on UACC-257 melanoma was 4.11 µM; in the assay on OVCAR-4 ovarian, 3.12 µM; in the assay on RXF 393 renal, 2.01 µM; in the assay with A498 renal, 0.327 µM; in the assay with T-47D breast, 2.36 µM; in the assay with KM12 colon, 3.24 µM. In addition, the GI50 in the assay with MALME-3M melanoma is 2.56 µM; with NCI-H522 lung it was 2.02 µM; in the assay on SK-MEL-2 melanoma it was 2.05 µM; in the assay with TK-10 renal it was 3.64 µM. Besides, the TGI in the assay with UACC-257 melanoma turned out to be 16.4 µM; with OVCAR-4 ovarian, 13.1 µM; in the assay on RXF 393 renal, 6.5 µM; in the assay on A498 renal, 4.38 µM; with T-47D breast, 9.12 µM; in the assay with KM12 colon, 12.4 µM. In addition, the TGI with MALME-3M melanoma turned out to be 11.4 µM; in the assay with NCI-H522 lung, 7.07 µM; in the assay with SK-MEL-2 melanoma it was 5.81 µM; in the assay on TK-10 renal it was 14.8 µM.

As for `NS(=O)(=O)c1ccc(N=Nc2c(O)[nH]c3ccc(C(=O)NCc4ccncc4)cc23)cc1`, the GI50 in the assay with UACC-257 melanoma, in the assay with OVCAR-4 ovarian, with RXF 393 renal, in the assay with A498 renal, in the assay with T-47D breast and in the assay with KM12 colon was over 25 µM throughout. Besides, the GI50 with MALME-3M melanoma, in the assay with NCI-H522 lung, with SK-MEL-2 melanoma and in the assay with TK-10 renal was over 25 µM in each case. The TGI in the assay with UACC-257 melanoma, with OVCAR-4 ovarian, in the assay with RXF 393 renal, in the assay on A498 renal, with T-47D breast and with KM12 colon was over 25 µM throughout. The TGI in the assay on MALME-3M melanoma, in the assay with NCI-H522 lung, in the assay with SK-MEL-2 melanoma and in the assay with TK-10 renal was over 25 µM in each case.

On to `CN(C)CCNC(=O)c1ccc(-c2nc3ccc4[nH]ncc4c3c3c2C2CCC3C2)cc1` (centres undefined), for which the GI50 was 3.07 µM with UACC-257 melanoma; 1.6 µM in the assay on OVCAR-4 ovarian; 0.267 µM with RXF 393 renal; 0.22 µM with A498 renal; 2.25 µM with T-47D breast; 0.534 µM in the assay with KM12 colon. The GI50 was 1.67 µM in the assay on MALME-3M melanoma, 1.25 µM in the assay with NCI-H522 lung, 1.55 µM in the assay with SK-MEL-2 melanoma and 0.723 µM in the assay on TK-10 renal. In addition, the TGI was found to be 9.95 µM in the assay with UACC-257 melanoma; 5.53 µM in the assay with OVCAR-4 ovarian; 1.18 µM in the assay on RXF 393 renal; 1.22 µM with A498 renal; 7.86 µM in the assay with T-47D breast; 3.36 µM in the assay on KM12 colon. The TGI in the assay on MALME-3M melanoma stood at 3.96 µM; in the assay on NCI-H522 lung, 4.33 µM; in the assay with SK-MEL-2 melanoma, 3.74 µM; in the assay on TK-10 renal it was 8.02 µM.
